# “Also recorded” adds a separate entry of the source.
# Experiments:
# MEK1 = biological target: T1, MEK1 (Homo sapiens, UniProt Q02750); test: MEK1 radiometric kinase assay; assay type: biochemical; conditions: peptide 100 μM
# T1 construct: purchased Millipore (KinaseProfiler service)
# Source text: A commercial radiometric assay service was used to test the specificity and potency of MMI-0100 ([…]; SEQ ID NO: 1) by measuring its half maximal inhibitory concentrations (IC50). This quantitative assay measures how much MK2 inhibitor (MMI-0100; […] (SEQ ID NO: 1)) is needed to inhibit 50% of a given biological process or component of a process (i.e., an enzyme, cell, or cell receptor). Specifically, in these assays, a positively charged substrate is phosphorylated with a radiolabeled phosphate group from an ATP if the kinase is not inhibited by an inhibitor peptide. The positively charged substrate then is attracted to a negatively charged filter membrane, quantified with a scintillation counter, and compared to a 100% activity control. ATP concentrations within 15 μM of the apparent Km for ATP were chosen since an ATP concentration near the Km may allow for the kinases to have the same relative amount of phosphorylation activity. The individual conditions for each radiometric assay are as follows.
# The reaction was initiated by adding the MgATP. After incubation for 40 minutes at room temperature, 5 μl of this incubation mix was used to initiate the MAPK2 radiometric assay whose reaction condition was the same as the condition for p38 MAPK assay described above.
# IC50 values for inhibitor peptides were determined using Millipore's IC50 Profiler Express service. […]
# [1] = Observation of toxicity, tissue erosion or necrosis
# [2] = test system: immortalized human pleural mesothelial cells (ATCC CRL-9444); test: IL-6 ELISA in TNF-α-stimulated mesothelial cells; assay type: cell-based
# Experimental: Expression of inflammatory cytokines was induced by applying 1 or 10 ng/ml of TNF-α to cultured mesothelial cells. Briefly, immortalized human pleural mesothelial cells (ATCC CRL-9444) were grown in Medium199 with Earle's BSS, 0.75 mM L-glutamine (Mediatech Inc., Manassas, Va.), 1.25 g/l sodium bicarbonate (Sigma), 3.3 nM epidermal growth factor (EGF) (MBL International, Woburn, Mass.), 40 nM hydrocortisone (Sigma), 870 nM insulin (MBL International), 20 mM HEPES (Sigma), trace elements mixture B (Mediatech Inc., Waltham, Mass.), 10% fetal bovine serum (FBS) (Hyclone), and 1% penicillin/streptomycin (Mediatech Inc., Waltham, Mass.). […] Human mesothelial cells were treated with two different concentrations (1 and 10 ng/mL) of TNF-α for 2, 6, 12, and 24 hours (data not shown). […] Without TNF-α stimulation, mesothelial cells made negligible amounts of IL-6. […] In subsequent experiments designed to determine whether the MMI-0100 peptide ([…]; SEQ ID NO: 1) could reduce TNF-α induced IL-6 expression, both 1 and 10 ng/mL of TNF-α were selected as stimuli. 10 ng/mL of TNF-α is regarded as more physiologically relevant for mesothelial cells.
# Prior to cytokine and/or inhibitor treatment, cells were allowed to acclimate in serum-free media consisting of only Medium199 with Earle's BSS, 0.75 mM L-glutamine, 1.25 g/l sodium bicarbonate, 20 mM HEPES, trace elements mixture B (Mediatech Inc., Waltham, Mass.), and 1% penicillin/streptomycin (Mediatech Inc., Waltham, Mass.) for 24 hours. […] Average concentration of IL-6 (pg/ml per 10^5 cells) at each time was determined by cytokine-specific ELISA.
# [3] = test system: human coronary artery endothelial cells (HCAEC); test: IL-6 and IL-8 ELISA in TNF-α-stimulated HCAEC; assay type: cell-based; conditions: 0.5 mM, 24 hours after 6 hour TNF-α
# Experimental: Primary human coronary artery endothelial cells (HCAEC) were cultured and seeded onto a 96-well plate, using methods described in the MTS proliferation assay above. Cells were again stimulated with 20 ng/ml of TNF-α for 6 hours and then treated with MMI-0100 (SEQ ID NO: 1) for approximately 24 hours. Supernatants were then collected and analyzed for drug effect on inflammatory cytokines.
# IL-6 (Cat #: 900-K16; Lot #: 0909016) and IL-8 (Cat #: 900-K18; Lot #: 0209018) ELISA kits (Peprotech; Rocky Hill, N.J.) were used to measure levels of these cytokines from HCAEC supernatants following treatment with MMI-0100 ([…]; SEQ ID NO: 1). The Human IL-6 ELISA development kit contains the key components required for the quantitative measurement of natural and/or recombinant hIL-6 in a sandwich ELISA format within the range of 32-2000 pg/ml. Human IL-8 ELISA development kit contains the key components required for the quantitative measurement of natural and/or recombinant hIL-8 in a sandwich ELISA format within the range of 16-1000 pg/ml. […]
# Briefly, 10 μl of supernatant was diluted with 90 μl of diluents; 3 replicates of each sample were used. Data were collected at 405 nm with correction at 650 nm on a plate reader. Each plate was monitored for 1 hour with readings taken every 5 minutes. Concentrations of IL-6 and IL-8 in test samples were determined by extrapolating from a standard curve. […]
sequence,measurement,setting,value
YARAAARQARAKALARQLGVAA [MMI-0100],"Percent Activity, MEK1",MEK1,68%
same,"evidence of toxicity, tissue erosion, or necrosis",[1],"did not show any evidence of toxicity, tissue erosion, or necrosis"
same,IL-6 expression,"[2]; TNF-α 1 ng/mL, MMI-0100 1000 or 3000 μM, 6, 12, 24 hours",reduced IL-6 expression to the levels at or below the untreated baseline
same,IL-6 expression,"[2]; TNF-α 10 ng/mL, 3000 μM, every time point",reduced IL-6 expression to the levels of the untreated baseline
same,IL-6 expression,"[2]; TNF-α 10 ng/mL, 6, 12, 24 hours",still effective in reducing IL-6 expression triggered by TNF-α
same,TNF-α-induced IL-6 expression,[3],reduced the level of TNF-α-induced IL-6 expression to that of the untreated control
same,TNF-α-induced IL-8 expression,[3],did not affect the level of TNF-α-induced IL-8 expression; also recorded: no effect

# — patent US20110288036A1, “Methods for Treating or Preventing Vascular Graft Failure” (priority 2010, published 2011)
